By inhibition is commonly meant the percentage by which the read-out fell short of the control. Usually IC50 stands for the midpoint of a concentration-inhibition curve.

Calls of active or inactive are those of the source. No cut-off for these calls is given here.

The subject of data set [1] is COS-7. Nature of the data set: Inhibition of transferrin uptake in african green monkey COS7 cells after 30 mins by microscopic TexasRed imaging. The class given is functional, cell-based. To be noted: Chlorocebus aethiops.
The next data set deals with T1, Dynamin-1 (Homo sapiens) (UniProt Q05193).
T1 sequence (whole entry): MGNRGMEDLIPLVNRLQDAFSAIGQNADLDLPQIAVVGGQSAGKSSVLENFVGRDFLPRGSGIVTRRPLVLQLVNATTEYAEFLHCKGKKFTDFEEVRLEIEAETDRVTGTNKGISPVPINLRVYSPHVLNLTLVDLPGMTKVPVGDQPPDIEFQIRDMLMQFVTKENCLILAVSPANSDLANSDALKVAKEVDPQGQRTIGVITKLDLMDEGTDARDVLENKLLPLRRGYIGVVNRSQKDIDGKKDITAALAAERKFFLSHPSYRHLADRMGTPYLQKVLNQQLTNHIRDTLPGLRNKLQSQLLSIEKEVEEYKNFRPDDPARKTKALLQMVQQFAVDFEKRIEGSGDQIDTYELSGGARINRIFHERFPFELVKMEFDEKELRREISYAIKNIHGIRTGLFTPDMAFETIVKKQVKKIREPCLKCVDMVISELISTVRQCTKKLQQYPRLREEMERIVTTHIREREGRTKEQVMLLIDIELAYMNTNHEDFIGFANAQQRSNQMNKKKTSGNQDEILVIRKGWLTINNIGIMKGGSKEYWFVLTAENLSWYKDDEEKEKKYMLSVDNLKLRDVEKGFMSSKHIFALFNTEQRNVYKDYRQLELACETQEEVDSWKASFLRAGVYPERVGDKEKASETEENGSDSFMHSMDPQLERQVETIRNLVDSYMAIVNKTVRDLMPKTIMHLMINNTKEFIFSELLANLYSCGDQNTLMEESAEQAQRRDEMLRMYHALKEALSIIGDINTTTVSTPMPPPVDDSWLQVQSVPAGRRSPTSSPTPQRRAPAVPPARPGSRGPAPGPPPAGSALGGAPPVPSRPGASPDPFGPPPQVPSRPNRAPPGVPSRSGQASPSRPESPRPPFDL
Nature of the data set: (§1) Inhibition of GTPase activity of Dynamin 1. On the set-up: concentration or dose not given beside the values. To be noted: concentration not given here.

A further data set has as its target T2, Dynamin-1 (Homo sapiens, UniProt Q05193).
T2 sequence (Q05193 whole entry): T1 sequence (whole entry)
Described as §1.

For data set [2], the system named is COS-7. As to the kind of experiment: Inhibition of transferrin uptake in african green monkey COS7 cells by microscopic TexasRed imaging. The following applies: Chlorocebus aethiops. The format is functional, cell-based.
The species named for another data set is Homo sapiens. Nature of the data set: Inhibition of GTPase activity of human mitochondrial Drp1 expressed in Escherichia coli BL-21.
For data set [3], the system named is COS-7. As to the kind of experiment: Inhibition of dynamin 1 mediated membrane fission in african green monkey Cos7 cells transfected with mRFP-LCa at 10 uM by total internal reflection fluorescence microscopy. The format is cell-based. To be noted: Chlorocebus aethiops.
The nature of data set [4]: Cytotoxicity against african green monkey COS7 cells after 12 hrs. The following applies: chlorocebus aethiops, cos-7, 12 h. The class given is cell-based.
The test system of data set [5] is Cell division control protein 42 homolog. As to the kind of experiment: Inhibition of GTPase activity of Cdc42.

As to `O=C(N/N=C/c1ccc(O)c(O)c1)c1ccc2ccccc2c1`, the inhibition result (with COS-7 [1]; in data set [5]) was “inactive” each time. This compound also yielded an inhibition against Dynamin-1 (Homo sapiens) of 73.2%. Also, the IC50 on Dynamin-1 came out at 5.1 µM; with COS-7 [2] it was 4 µM. The inhibition entry in the data set filed under Homo sapiens and with COS-7 [3] was “Active” each time. In data set [4], the Activity entry is recorded as “Non-toxic”.

`O=C(N/N=C/c1ccc(Cl)c(Cl)c1)c1cc2ccccc2cc1O` gave an inhibition against Dynamin-1 (Homo sapiens) of 0%.

On Dynamin-1 (Homo sapiens), `O=C(N/N=C/c1cc(O)ccc1[N+](=O)[O-])c1cc2ccccc2cc1O` registered an inhibition of 0%.

As for `COc1ccc(/C=N/NC(=O)c2cc3ccccc3cc2O)cc1O`, the inhibition result (with COS-7 [1]; in data set [5]) was “inactive” in each case. At Dynamin-1 (Homo sapiens), this compound yielded an inhibition of 74.7%. For the same compound, the IC50 at Dynamin-1 came out at 3.6 µM; in the data set with COS-7 [2], 2.6 µM. In addition, the inhibition result in the data set listed under Homo sapiens and with COS-7 [3] was “Active” in each case. The Activity entry in data set [4] is listed as “Non-toxic”.

Compound `O=C(N/N=C/c1ccc(O)c(O)c1)c1cc2ccccc2cc1O` [DYNASORE] displayed an inhibition on Dynamin-1 (Homo sapiens) of 69.8%. Further, the IC50 against Dynamin-1 came out at 10.8 µM; in the data set on COS-7 [2] it was 15 µM. For the same compound, the inhibition entry in the data set filed under Homo sapiens is “Active”. In addition, the inhibition entry with COS-7 [3] is “inactive”.

In the case of `O=C(OP(=O)(N1CCOC1=O)N1CCOC1=O)c1ccc2ccccc2c1`, at Dynamin-1 (Homo sapiens), the inhibition amounted to 0%. The inhibition result with COS-7 [2] was “Active”.

Take `O=C(N/N=C/c1ccc(Cl)c(Cl)c1)c1ccc2ccccc2c1`: the inhibition on Dynamin-1 (Homo sapiens) amounted to 0%.

As to `Cc1ccc(/C=N/NC(=O)c2cc3ccccc3cc2O)cc1C`, at Dynamin-1 (Homo sapiens), the inhibition was found to be 0%.

The compound `O=C(NCCc1ccc(O)cc1)c1ccc2ccccc2c1` gave an inhibition against Dynamin-1 (Homo sapiens) of 0%.

At Dynamin-1 (Homo sapiens), `NCCc1ccc(OC(=O)c2ccc3ccccc3c2)cc1` displayed an inhibition of 0%.

The compound `Cc1ccc(/C=N/NC(=O)c2ccc3ccccc3c2)cc1C` returned an inhibition at Dynamin-1 (Homo sapiens) of 0%.

For the origin of these results see ChEMBL document CHEMBL1208766, “Synthesis of potent chemical inhibitors of dynamin GTPase” (Bioorg Med Chem Lett, 2010).
